Laboratory results reported in patent US10413505B1, “Pharmaceutical compositions and methods of using the same” (priority 2017, dated 2019).
Like-named read-outs stand apart in the source and are kept apart here.

Legend:
[1] = Example 1 urinary pharmacokinetics after intranasal administration; format: in vivo, human; details: healthy subjects, single intranasal 160 mg cocaine HCl; for CL renal / dose excreted: human, urine, 160 mg; for CL renal: inhaled or intranasal; for dose excreted: other: intranasal
Protocol: A single dose of a pharmaceutical composition was administered to both nostrils using cottonoid pledgets. […] Each pledget absorbed approximately 1 mL of pharmaceutical composition (i.e., 40 mg cocaine hydrochloride). Two soaked pledgets were placed into each nasal cavity of the subject and against the anterior septum for 20 minutes; thus, a total dose of 160 mg of cocaine hydrochloride was administered.
Urine samples were collected pre-dose and at the following intervals from the start of intranasal application of the pharmaceutical composition: 0-2 hours, 2-4 hours, 4-8 hours, and 8-12 hours. […] A 25-μL aliquot of each urine sample was processed by liquid-liquid extraction.
Urinary pharmacokinetic parameters were analyzed using noncompartmental methods.

[2] = Example 2 urinary pharmacokinetics, normal renal function vs severe renal impairment; details: for CL renal: human, 160 mg; for 0 to 32 hour urinary recovery (geometric mean) / 0 to 32 hour urinary recovery (mean) / 0 to 32 hour urinary recovery (median): metabolites as cocaine equivalents
Protocol: For the urine analysis of cocaine, BE, and EME, individual urinary recoveries for each analyte were determined over each collection interval as the product of the urine concentration times the urine volume. The total recoveries were determined as the sum of the recoveries over all the intervals. Total urinary recoveries were also expressed as the percentage of the administered dose, after correction for the molecular weight of each analyte. The renal clearances of cocaine, BE, and EME were determined as the urinary recovery (in μg) divided by the plasma AUC over the same time interval (the longest period for which both plasma and urine measurements were available).
Urine was collected prior to dosing and from 0-2, 2-4, 4-8, 8-12, 12-24, and 24-32 hours after the beginning of dose application. […] Testing methods used were consistent with those used by inVentiv Health Clinical Lab, Inc., Miami, Fla., U.S.A. Urinary pharmacokinetic parameters included total urinary recovery (μg), urinary recovery as a percentage of dose, and CLr.

[3] = Example 3 plasma pharmacokinetics, normal hepatic function vs hepatic impairment; details: for AUC(0-t) / AUC(0-inf): both, human, plasma, inhaled or intranasal, 160 mg, single intranasal 160 mg cocaine HCl
[4] = urine 0-12 h, metabolites as cocaine equivalents
[5] = normal renal function, single intranasal 160 mg cocaine HCl
[6] = severe renal impairment, single intranasal 160 mg cocaine HCl

## COC(=O)[C@H]1[C@@H](OC(=O)c2ccccc2)C[C@@H]2CC[C@H]1N2C [Cocaine, cocaine, reference compound]
[1]; [4]
  Total Urinary Recovery (Geometric mean): 96.5 µg
  Total Urinary Recovery (Mean): 117 µg
  Total Urinary Recovery (Median): 114 µg
[1]; read-out: Renal Clearance (Geometric mean) (converted)
  CL renal: 37.2 mL/min
[1]; read-out: Renal Clearance (Mean) (converted)
  CL renal: 47.2 mL/min
[1]; read-out: Renal Clearance (Median) (converted)
  CL renal: 42.7 mL/min
[1]; urine 0-12 h, metabolites as cocaine equivalents, read-out: Urinary Recovery (Geometric mean)
  dose excreted: 0.0603%
[1]; urine 0-12 h, metabolites as cocaine equivalents, read-out: Urinary Recovery (Mean)
  dose excreted: 0.0729%
[1]; urine 0-12 h, metabolites as cocaine equivalents, read-out: Urinary Recovery (Median)
  dose excreted: 0.0714%
[2]; both, urine, inhaled or intranasal, Renal Clearance, CLr (geometric mean), normal renal function, single intranasal 160 mg cocaine HCl
  CL renal: 26.8 mL/min
[2]; both, urine, inhaled or intranasal, Renal Clearance, CLr (geometric mean), severe renal impairment, single intranasal 160 mg cocaine HCl
  CL renal: 17.3 mL/min
[2]; both, urine, other: intranasal (drug-soaked pledgets in the nasal cavity), renal clearance, range observed, renally impaired patients, 32 hours from administration
  CL renal: 8.8 to 31.9 mL/min
[2]; urine and plasma, inhaled or intranasal, CLr (Geometric Least Squares Mean, ANOVA), Impaired renal function (severe), single intranasal 160 mg cocaine HCl
  CL renal: 17.3 mL/min
[2]; urine and plasma, inhaled or intranasal, CLr (Geometric Least Squares Mean, ANOVA), Normal renal function, single intranasal 160 mg cocaine HCl
  CL renal: 26.8 mL/min
[2]; urine and plasma, inhaled or intranasal, Renal Clearance (geometric mean), normal renal function, single intranasal 160 mg cocaine HCl
  CL renal: 26.9 mL/min
[2]; urine and plasma, inhaled or intranasal, Renal Clearance (geometric mean), severe renal impairment, single intranasal 160 mg cocaine HCl
  CL renal: 17.3 mL/min
[2]; urine and plasma, inhaled or intranasal, Renal Clearance (mean), normal renal function, single intranasal 160 mg cocaine HCl
  CL renal: 33.3 mL/min
[2]; urine and plasma, inhaled or intranasal, Renal Clearance (mean), severe renal impairment, single intranasal 160 mg cocaine HCl
  CL renal: 20.4 mL/min
[2]; urine and plasma, inhaled or intranasal, Renal Clearance (median), normal renal function, single intranasal 160 mg cocaine HCl
  CL renal: 33.6 mL/min
[2]; urine and plasma, inhaled or intranasal, Renal Clearance (median), severe renal impairment, single intranasal 160 mg cocaine HCl
  CL renal: 19.6 mL/min
[2]; urine and plasma, inhaled or intranasal, Renal Clearance, CLr (mean), normal renal function, single intranasal 160 mg cocaine HCl
  CL renal: 33.3 mL/min
[2]; urine and plasma, inhaled or intranasal, Renal Clearance, CLr (mean), severe renal impairment, single intranasal 160 mg cocaine HCl
  CL renal: 20.3 mL/min
[2]; urine and plasma, inhaled or intranasal, Renal Clearance, CLr (median), normal renal function, single intranasal 160 mg cocaine HCl
  CL renal: 33.7 mL/min
[2]; urine and plasma, inhaled or intranasal, Renal Clearance, CLr (median), severe renal impairment, single intranasal 160 mg cocaine HCl
  CL renal: 19.7 mL/min
[2]; [5]
  0-32 h Urinary Recovery (geometric mean): 122.8 µg
  0-32 h Urinary Recovery (mean): 164.2 µg
  0-32 h Urinary Recovery (median): 126.6 µg
  0 to 32 hour urinary recovery (geometric mean): 0.086 % of administered dose
  0 to 32 hour urinary recovery (mean): 0.115 % of administered dose
  0 to 32 hour urinary recovery (median): 0.089 % of administered dose
[2]; severe renal impairment vs normal renal function
  CLr, percent lower (reduction) than in normal subjects: approximately 36%
[2]; severe renal impairment vs normal renal function, ANOVA
  CLr Ratio Impaired/Normal: 64.33%
[2]; [6]
  0-32 h Urinary Recovery (geometric mean): 102.7 µg
  0-32 h Urinary Recovery (mean): 138.5 µg
  0-32 h Urinary Recovery (median): 89.8 µg
  0 to 32 hour urinary recovery (geometric mean): 0.072 % of administered dose
  0 to 32 hour urinary recovery (mean): 0.097 % of administered dose
  0 to 32 hour urinary recovery (median): 0.063 % of administered dose
[3]; ANOVA
  AUClast Ratio Grade B/Normal: 284.54%
  AUClast Ratio Grade C/Normal: 179.88%
  CL/F Ratio Grade B/Normal (GMR): 36.25%
  CL/F Ratio Grade C/Normal (GMR): 55.28%
  Cmax Ratio Grade C/Normal: 68.13%
[3]; ANOVA, excludes one outlier subject
  Cmax Ratio Grade B/Normal: 104.89%
[3]; Grade B hepatic impairment
  AUClast, times higher than normal subjects: 2.8 times
  CL/F (Geometric Least Squares Mean, ANOVA): 629 L/h
  CL/F, percent reduction vs normal: 64%
[3]; Grade B hepatic impairment, outlier excluded
  geometric mean Cmax, percent higher than normal: 5%
[3]; Grade B hepatic impairment, outlier included
  geometric mean Cmax, percent higher than normal: 56%
[3]; Grade C hepatic impairment
  AUClast, times higher than normal subjects: 1.8 times
  CL/F (Geometric Least Squares Mean, ANOVA): 959 L/h
  CL/F, percent reduction vs normal: 45%
  geometric mean Cmax, percent lower than normal: 32%
[3]; Normal hepatic function
  CL/F (Geometric Least Squares Mean, ANOVA): 1735 L/h
[3]; all hepatically impaired individuals, outlier excluded
  geometric mean Cmax, percent lower than normal: 7%
[3]; all hepatically impaired individuals, outlier included
  geometric mean Cmax, percent higher than normal: 27%
[3]; AUC0→t (Geometric mean), hepatic impairment
  AUC(0-t): 189 ng·h/mL
[3]; AUC0→t (Geometric mean), normal hepatic function
  AUC(0-t): 79.2 ng·h/mL
[3]; AUC0→t (Mean), hepatic impairment
  AUC(0-t): 223 ng·h/mL
[3]; AUC0→t (Mean), normal hepatic function
  AUC(0-t): 92.8 ng·h/mL
[3]; AUC0→t (Median), hepatic impairment
  AUC(0-t): 176 ng·h/mL
[3]; AUC0→t (Median), normal hepatic function
  AUC(0-t): 82.4 ng·h/mL
[3]; AUC0→∞ (Geometric mean), hepatic impairment
  AUC(0-inf): 192 ng·h/mL
[3]; AUC0→∞ (Geometric mean), normal hepatic function
  AUC(0-inf): 82.4 ng·h/mL
[3]; AUC0→∞ (Mean), hepatic impairment
  AUC(0-inf): 227 ng·h/mL
[3]; AUC0→∞ (Mean), normal hepatic function
  AUC(0-inf): 95.3 ng·h/mL
[3]; AUC0→∞ (Median), hepatic impairment
  AUC(0-inf): 177 ng·h/mL
[3]; AUC0→∞ (Median), normal hepatic function
  AUC(0-inf): 83.3 ng·h/mL
